Reference: patent US12629419B2, “Prevention or mitigation of T-cell engaging agent-related adverse effects” (Hoffmann-La Roche Inc., priority 2020, dated 2026)
“Also recorded” adds a separate entry of the source.

Legend:
[1] = cited from earlier work
[2] = test system: MKN45 NucLight Red (NLR) target cells; assay: killing assay with PBMCs, MKN45 NLR target cells and CEA-TCB (Incucyte); type: cell-based
CD4+ and CD8+ T cells [3] = assay: T cell activation (CD25, CD69 by flow cytometry) in CEA-TCB killing assay; type: cell-based; conditions: 10 nM CEA-TCB
[4] = test system: CEA-TCB-induced cytokine release; assay: CEA-TCB-induced cytokine release (Luminex, supernatants); conditions: 72 hrs; 10 nM CEA-TCB; concentrations 50 nM to 1 μM
Description: The levels of cytokines were measured by Luminex in the supernatants of the assay to determine the impact of the different compounds on CEA-TCB-induced cytokine release.

CD20+ B cells = assay: CD19-TCB-induced B cell depletion in humanized NSG mice; type: in vivo
Text: FIG. 81. In vivo experiment timelines and dosing schedule.
To best reproduce the pharmacodynamic profile of ruxolitinib, dasatinib and sirolimus in the clinic and to verify whether the resulting exposure would be sufficient to prevent CD19-TCB-induced cytokine release, dasatinib and ruxolitinib were given per os twice per day, and sirolimus was given per os twice per day on day 1 and then once per day.
At 48 hrs and 72 hrs, blood was collected by tail-vein bleeding and the CD20+ B cell count was measured by flow cytometry (FIGS. 82A and B) to assess the effect of the different treatments on CD19-TCB-induced B cell depletion. […] Its half-life being around 6-7 hrs and dasatinib being given only twice per day, a lack of exposure could likely explain that CD19-TCB was partially active, resulting in B cell depletion. At experiment termination (72 hrs), spleens were collected and the B cell count was measured by flow-cytometry (FIG. 83). […] However, their inhibitory effect was stronger than methylprednisolone (FIG. 83).

SUDLH-8 tumor cells = assay: killing assay with PBMCs, CTV labelled SUDLH-8 tumor cells and CD19-TCB; type: cell-based; conditions: 24 hrs; 100 nM kinase inhibitors or dexamethasone, 5 μg/mL antibodies
Description: FIG. 64. In vitro killing assay set-up. PBMCs were co-cultured with CellTrace™ Violet (CTV) labelled SUDLH-8 tumor cells (E:T=10:1) in the presence of escalating concentrations of CD19-TCB in media supplemented with the different kinase inhibitors (100 nM) for 24 hrs.
FIG. 69. In vitro killing assay set-up. PBMCs were co-cultured with CTV labelled SUDLH-8 cells (E:T=10:1) in the presence of escalating concentrations of CD19-TCB in media supplemented with the different JAK inhibitors (100 nM) for 24 hrs.
FIG. 73. In vitro killing assay set-up.
(§1) PBMCs were co-cultured together with CellTrace™ Violet (CTV) labelled SUDLH-8 tumor cells and escalating concentrations of CD19-TCB in the presence of the different kinase inhibitors, including also the Src inhibitor dasatinib (FIG. 64). At assay endpoint (24 hrs), the killing of CTV labelled SUDLH-8 cells was measured by flow cytometry by exclusion of the dead SUDLH-8 cells with a Live/Dead stain. […] Lastly, the levels of cytokines were measured in the supernatants of the assay to evaluate the effect of mTOR, JAK and Src inhibitors on CD19-TCB-induced cytokine release.
(§2) At assay endpoint (24 hrs), the killing of CTV labelled SUDLH-8 cells was measured by flow cytometry by exclusion of the dead SUDLH-8 cells with a Live/Dead stain. […] Lastly, the levels of cytokines were measured in the supernatants of the assay to assess the effect of the JAK inhibitors on CD19-TCB-induced cytokine release.
as §2, with “stain to evaluate the effect of the different mitigation approaches on CD19-TCB-dependent killing.” for “stain.”, “address” for “assess”

[5] = test system: CD19-TCB-induced cytokine release; assay: CD19-TCB-induced cytokine release in SUDLH-8 assay (Luminex); type: cell-based; conditions: 24 hrs; 100 nM inhibitor
Description: as §1, §2
as §2, with “stain to evaluate the effect of the different mitigation approaches on CD19-TCB-dependent killing.” for “stain.”, “address” for “assess”

WSU DLCL2 tumor cells = assay: killing assay with PBMCs, CTV labelled WSU DLCL2 tumor cells and CD20-TCB; type: cell-based; conditions: 24 hours
Description: FIG. 13. In vitro killing assay set-up.
FIG. 14. […] At 24 hours, the tumor cells and PBMCs from technical replicates were pooled and stained with a LIVE/DEAD™ Near-IR dead cell dye to allow exclusion of dead CTV labelled WSU DLCL2 tumor cells by flow cytometry. Mean of n=3 donors+/−SEM.
(§3) A similar experiment was conducted with another TCB. WSU DLCL2 cells were co-cultured together with PBMCs in the presence of 1 nM CD20-TCB (SEQ ID NOs 4-11, 24-35), and escalating sirolimus doses ranging from 0 nM to 1000 nM (FIG. 13).
(§4) A similar experiment was conducted with another TCB. […] The killing of B cells was measured as a readout for the impact of the various compounds on TCB efficacy at 24 h (FIGS. 27 and 28). […] Lastly, the levels of cytokines (TNF-α, IFN-γ, IL-2, IL-6, IL-4, IL-10, GM-CSF and IL-1β) were analyzed by Luminex at assay endpoint to assess the impact of the different treatments on TCB-induced cytokine release (FIGS. 32 and 33).
(§5) At 24 hours, tumor cell killing was measured by flow cytometry by exclusion of dead CTV cells. The supernatants were collected and cytokines were measured by Luminex.

CD4+ and CD8+ T cells [6] = assay: T cell activation (CD25, CD69) in CD20-TCB killing assay; type: cell-based; conditions: 24 hours; CD20-TCB; concentration of 1 μM
Description: as §3
(§6) A similar experiment was conducted with CD20-TCB.
(§7) A similar experiment was conducted with CD20-TCB. WSU DLCL2 cells were co-cultured together with PBMCs in the presence of 1 nM CD20-TCB, and escalating everolimus doses ranging from 0 nM to 1000 nM (FIG. 13).
(§8) A similar experiment was conducted with CD20-TCB. WSU DLCL2 cells were co-cultured together with PBMCs in the presence of 1 nM CD20-TCB, and escalating ruxolitinib doses ranging from 0 nM to 1000 nM (FIG. 13).
as §4, §5

[7] = test system: CD20-TCB-induced cytokine release; assay: CD20-TCB-induced cytokine release (Luminex); type: cell-based; conditions: 24 hours; CD20-TCB; escalating doses
Description: A similar experiment was conducted with another TCB.
as §6, §7, §8, §4, §5

[8] = test system: A375 NucLight Red (NLR) target-cells; assay: killing assay with PBMCs, A375 NLR target cells and MAGEA4-TCB (Incucyte); type: cell-based; conditions: 25 nM MAGEA4-TCB; 0 nM to 100 nM
[9] = test system: MAGEA4-TCB-induced cytokine release; assay: MAGEA4-TCB-induced cytokine release; type: cell-based; conditions: 25 nM MAGEA4-TCB; 0 nM to 100 nM
Description: FIG. 45. Effect of escalating concentrations (c) of ruxolitinib on IFN-γ (A), IL-2 (B), TNF-α (C), GM-CSF (D), IL-6 (E), IL-1β (F), IL-8 (G), MCP-1 (H) and IL-10 (I) levels induced by 8 nM MAGEA4-TCB. At 72 hours, the supernatants were collected and cytokines were analyzed by cytometric bead array (CBA). Mean of technical replicates+/−SD for 1 representative donor.
FIG. 47. […] At 72 hours, the supernatants were collected and cytokines were analyzed by CBA. Mean of technical replicates+/−SD for 1 representative donor.
The effect of ruxolitinib on TCB-induced tumor cell killing and cytokine release was assessed using an additional TCB, the MAGEA4-TCB (SEQ ID NOs 37-56).

CD4+ and CD8+ T cells [10] = assay: T cell activation (CD25, CD69) in CD20-TCB killing assay; type: cell-based; conditions: 24 hours, concentrations 0 nM to 100 nM

Compound: Cc1nc(Nc2ncc(C(=O)Nc3c(C)cccc3Cl)s2)cc(N2CCN(CCO)CC2)n1 [dasatinib]
- half-life [1]: 6 to 7 h

Compound: Cc1cnc(Nc2ccc(OCCN3CCCC3)cc2)nc1Nc1cccc(S(=O)(=O)NC(C)(C)C)c1 [fedratinib, Fedratinib]
- MKN45 NLR target cell killing by 10 nM CEA-TCB ([2]; doses below 1 μM): only a minor effect
- MKN45 NLR target cell killing by 10 nM CEA-TCB ([2]; inhibitor doses 12.5 nM to 1 μM, 50 000 PBMCs: 5 000 target cells, Incucyte): only partially reduced
- expression of CD69 and CD25 on CD4+ T cells and CD8+ T cells (CD4+ and CD8+ T cells [3]; 72 hrs, concentrations below 1 μM): did not affect
- levels of IFN-γ, IL-2, TNF-α, IL-6 and IL-8 [4]: reduced

Compound: obinutuzumab
- depletion of B cells in blood (CD20+ B cell count) (CD20+ B cells; 48 hrs and 72 hrs, 0.5 mg/kg CD19-TCB i.v., obinutuzumab pre-treatment 30 mg/kg i.v.): complete depletion
- CD19-TCB-induced CD20+ B cell depletion in the spleen (CD20+ B cells; 72 hrs (termination)): complete depletion

Compound: C[C@@H]1CCN(C(=O)CC#N)C[C@@H]1N(C)c1ncnc2[nH]ccc12 [tofacitinib, Tofacitinib]
- CD19-TCB-dependent killing of CTV labelled SUDLH-8 cells (SUDLH-8 tumor cells): did not prevent
- CD19-TCB-induced IFN-γ, TNF-α, IL-6 and GM-CSF release [5]: prevented
- CD19-TCB-induced cytokine release [5]: as potent as ruxolitinib

Compound: CCS(=O)(=O)N1CC(CC#N)(n2cc(-c3ncnc4[nH]ccc34)cn2)C1 [baricitinib, Baricitinib]
- expression of CD25 on CD4+ and CD8+ T cells (CD4+ and CD8+ T cells [3]; 72 hours, escalating concentrations, comparably to ruxolitinib): reduced
- CD20-TCB induced tumor cell killing (WSU DLCL2 tumor cells; concentration of 1 μM): slightly reduced
- CD20-TCB-induced tumor cell killing (WSU DLCL2 tumor cells; concentrations 0 nM to 100 nM): did not impair; also recorded: did not prevent
- T cell activation (CD4+ and CD8+ T cells [6]): slightly reduced
- levels of IFN-γ, TNF-α, GM-CSF, IL-6 and IL-8 [7]: reduced
- MAGEA4-TCB-induced tumor cell killing [8]: comparable to ruxolitinib
- MAGEA4-TCB-induced GM-CSF, IL-2, IFN-γ, TNF-α, IL-1β and IL-6 release [9]: comparable to ruxolitinib
- CD19-TCB-dependent killing of CTV labelled SUDLH-8 cells (SUDLH-8 tumor cells): did not prevent
- CD19-TCB-induced IFN-γ, TNF-α, IL-6 and GM-CSF release [5]: prevented
- CD19-TCB-induced cytokine release [5]: as potent as ruxolitinib
- T cell activation (CD25 and CD69 on CD4+ and CD8+ T cells) (CD4+ and CD8+ T cells [10]): did not impair; also recorded: did not prevent
